The record followed here is article PMC10460844, “Real‐Time Monitoring of Multitarget Antimicrobial Mechanisms of Peptoids Using Label‐Free Imaging with Optical Diffraction Tomography” (Advanced Science, 2023).

Series [1] is described as follows: Analytical reversed-phase HPLC elution (hydrophobicity). The following applies: Table S1; analytical RP-HPLC, SunFire C18, water/ACN + 0.1% TFA, 5 to 100% B linear over 30 min, 1 mL/min, UV 220 nm; approximate comparison of hydrophobicity. In kind it is physicochemical. The protocol:
7. HPLC chromatogram, retention time (tR), and LC-MS data
HPLC analysis of peptoids was conducted using a Waters HPLC system equipped with a Waters 2489 UV/Visible Detector, 1525 Binary HPLC Pump, 2707 Autosampler, 5CH column oven, and a C18 column (SunFire C18, 4.6 × 250 mm, 5 μm; Waters Corp., Milford, MA, USA). The mobile phases were deionized water (A, with + 0.1% TFA) and acetonitrile (ACN; B, with + 0.1% TFA). Before sample injection, the column was conditioned with 5% B for 10 min. Then, the mobile phase was maintained at 5% B for 2 min, followed by increasing B to 100% using a linear gradient over 30 min. At this point, 100% B was maintained for 5 additional min. The flow rate of the mobile phase was 1 mL/min. The sample was detected by measuring absorbance at 220 nm. […]

The next series concerns rat erythrocytes. Briefly: Hemolysis assay. The following applies: for HC10 / HC50: pH 7.4. In kind it is cell-based. The protocol: The hemolysis assay was performed using rat erythrocytes in phosphate‐buffered saline (PBS), as reported by Mendes et al.^[ [45] ^] Animal studies were approved by the Laboratory Animal Resource Center of Gwangju Institute of Science and Technology. Blood was collected from a 13‐week‐old male Sprague‐Dawley rat in tubes containing 158 USP units of sodium heparin to prevent coagulation and centrifuged at 1000 rpm for 10 min at 4 °C. Plasma was removed carefully and erythrocyte pellets were washed three times with PBS (35 mM phosphate, pH 7.4, 150 mM NaCl). Next, 150 µL of a 10% erythrocyte suspension was mixed with 50 µL of serially diluted peptoids (0–100 µM) in a 96‐well black polypropylene plates (Greiner, Kremsmünster, Austria). Untreated erythrocytes and cells lysed by the addition of 1% Triton X‐100 were used as negative and positive controls, respectively, with the 1% Triton X‐100‐treated wells being accepted to represent 100% hemolysis. The reaction mixture was incubated at 37 °C for 60 min, and the plates were centrifuged at 1000 rpm for 15 min. Aliquots (150 µL) of the supernatant were transferred to fresh 96‐well plates, and the absorbance of each well was measured at 540 nm using a microplate reader. Hemolysis induced by peptoids was calculated as the percentage value of Triton X‐100 lysed cells. The percentage of hemolysis by the extracts was calculated according to the following formula: % hemolysis = [(Abs 540 nm in the peptoid solution – Abs 540 nm in PBS) / (Abs 540 nm in 1% Triton X‐100 – Abs 540 nm in PBS)] × 100. HC10 and HC50 were defined as the peptoid concentrations that caused 10% and 50% hemolysis in rat erythrocytes, respectively. H max indicates the percentage of hemolysis observed at the maximum peptoid concentration, 100 µM throughout this study.

Numbered stars: 1 amine (or outer) side, 2 acyl side, 3 side chain; on linkers, the order of the positions; unused ones are H or OH. Square brackets hold non-standard residues; d marks the D form. Peptide text beside a SMILES is read from it. Gly(N(CH2)2(3-indolyl)) = O=C(O)CNCCc1c[nH]c2ccccc12; Nspe = C[C@H](NCC(=O)O)c1ccccc1; X1 = O=C(CN(CCCCO)[*:1])[*:2]; Nphe = O=C(O)CNCc1ccccc1; Nlys = NCCCCNCC(=O)O

On to `NCCCCNCC(=O)N(CC(=O)N(CC(=O)N(CCCCN)CC(=O)N(CC(=O)N(CC(=O)N(CCCCN)CC(=O)N(CC(=O)N(CC(=O)N(CCCCN)CC(=O)N(CC(=O)N(CC(N)=O)Cc1ccccc1)Cc1ccccc1)Cc1ccccc1)Cc1ccccc1)Cc1ccccc1)Cc1ccccc1)Cc1ccccc1)Cc1ccccc1` [peptoid 2, reference compound] (H-[Nlys][Nphe][Nphe][Nlys][Nphe][Nphe][Nlys][Nphe][Nphe][Nlys][Nphe][Nphe]-NH2), for which the HPLC elution in series [1] was 50.7 % MeCN. Also, in the series on rat erythrocytes, the “Hmax (100 µM)” value is 17.7±1.1%, the HC10 worked out at 20.4 µM and the HC50 is recorded as over 100.0 µM. The matching figures for `C[C@@H](c1ccccc1)N(CC(N)=O)C(=O)CN(C(=O)CN(CCCCN)C(=O)CN(C(=O)CN(C(=O)CN(CCCCN)C(=O)CN(C(=O)CN(C(=O)CN(CCCCN)C(=O)CN(C(=O)CN(C(=O)CN(CCCCN)C(=O)CNCCc1c[nH]c2ccccc12)[C@@H](C)c1ccccc1)[C@@H](C)c1ccccc1)[C@@H](C)c1ccccc1)[C@@H](C)c1ccccc1)[C@@H](C)c1ccccc1)[C@@H](C)c1ccccc1)[C@@H](C)c1ccccc1` [peptoid 3]: 55.8 % MeCN, 100.5±9.9%, 6.3 µM and 13.9 µM. As for `C[C@@H](c1ccccc1)N(CC(N)=O)C(=O)CN(CCCCN)C(=O)CN(C(=O)CN(CCCCN)C(=O)CN(CCCCN)C(=O)CN(C(=O)CN(C(=O)CN(CCCCN)C(=O)CN(C(=O)CN(C(=O)CNCCCCN)[C@@H](C)c1ccccc1)[C@@H](C)c1ccccc1)[C@@H](C)c1ccccc1)[C@@H](C)c1ccccc1)[C@@H](C)c1ccccc1` [peptoid 50], the HPLC elution in series [1] is recorded as 46.1 % MeCN.

Regarding `C[C@@H](c1ccccc1)N(CC(N)=O)C(=O)CN(CCCCN)C(=O)CN(C(=O)CN(C(=O)CN(CCCCN)C(=O)CN(C(=O)CN(CCCCN)C(=O)CN(CCCCN)C(=O)CN(C(=O)CN(C(=O)CNCCCCN)[C@@H](C)c1ccccc1)[C@@H](C)c1ccccc1)[C@@H](C)c1ccccc1)[C@@H](C)c1ccccc1)[C@@H](C)c1ccccc1` [peptoid 51], in series [1], the HPLC elution is recorded as 45.3 % MeCN. Consider `C[C@@H](c1ccccc1)N(CC(N)=O)C(=O)CN(CCCCN)C(=O)CN(C(=O)CN(C(=O)CN(CCCCN)C(=O)CN(C(=O)CN(C(=O)CN(CCCCN)C(=O)CN(C(=O)CN(CCCCN)C(=O)CNCCCCN)[C@@H](C)c1ccccc1)[C@@H](C)c1ccccc1)[C@@H](C)c1ccccc1)[C@@H](C)c1ccccc1)[C@@H](C)c1ccccc1` [peptoid 52], for which the HPLC elution in series [1] came to 46.9 % MeCN. The same measure, in the same setting: the value for `C[C@H](NCC(=O)N(CCCCN)CC(=O)N(CC(=O)N(CC(=O)N(CCCCN)CC(=O)N(CC(=O)N(CC(=O)N(CCCCN)CC(=O)N(CC(=O)N(CC(=O)N(CCCCN)CC(=O)N(CCCCN)CC(N)=O)[C@@H](C)c1ccccc1)[C@@H](C)c1ccccc1)[C@@H](C)c1ccccc1)[C@@H](C)c1ccccc1)[C@@H](C)c1ccccc1)[C@@H](C)c1ccccc1)c1ccccc1` [peptoid 53] (H-[Nspe][Nlys][Nspe][Nspe][Nlys][Nspe][Nspe][Nlys][Nspe][Nspe][Nlys][Nlys]-NH2) was 48.5 % MeCN; that for `C[C@H](NCC(=O)N(CCCCN)CC(=O)N(CC(=O)N(CC(=O)N(CCCCN)CC(=O)N(CC(=O)N(CC(=O)N(CCCCN)CC(=O)N(CCCCN)CC(=O)N(CC(=O)N(CCCCN)CC(=O)N(CC(N)=O)[C@@H](C)c1ccccc1)[C@@H](C)c1ccccc1)[C@@H](C)c1ccccc1)[C@@H](C)c1ccccc1)[C@@H](C)c1ccccc1)[C@@H](C)c1ccccc1)c1ccccc1` [peptoid 54] (H-[Nspe][Nlys][Nspe][Nspe][Nlys][Nspe][Nspe][Nlys][Nlys][Nspe][Nlys][Nspe]-NH2) was 48.1 % MeCN. On the same count and under the same terms, as for `C[C@H](NCC(=O)N(CCCCN)CC(=O)N(CC(=O)N(CC(=O)N(CCCCN)CC(=O)N(CCCCN)CC(=O)N(CC(=O)N(CCCCN)CC(=O)N(CC(=O)N(CC(=O)N(CCCCN)CC(=O)N(CC(N)=O)[C@@H](C)c1ccccc1)[C@@H](C)c1ccccc1)[C@@H](C)c1ccccc1)[C@@H](C)c1ccccc1)[C@@H](C)c1ccccc1)[C@@H](C)c1ccccc1)c1ccccc1` [peptoid 55] (H-[Nspe][Nlys][Nspe][Nspe][Nlys][Nlys][Nspe][Nlys][Nspe][Nspe][Nlys][Nspe]-NH2), the figure is 47.2 % MeCN. Same read-out and setting: the value for `C[C@H](NCC(=O)N(CCCCN)CC(=O)N(CCCCN)CC(=O)N(CC(=O)N(CCCCN)CC(=O)N(CC(=O)N(CC(=O)N(CCCCN)CC(=O)N(CC(=O)N(CC(=O)N(CCCCN)CC(=O)N(CC(N)=O)[C@@H](C)c1ccccc1)[C@@H](C)c1ccccc1)[C@@H](C)c1ccccc1)[C@@H](C)c1ccccc1)[C@@H](C)c1ccccc1)[C@@H](C)c1ccccc1)c1ccccc1` [peptoid 56] (H-[Nspe][Nlys][Nlys][Nspe][Nlys][Nspe][Nspe][Nlys][Nspe][Nspe][Nlys][Nspe]-NH2) was 48.0 % MeCN; that for `C[C@@H](c1ccccc1)N(CC(=O)N(CCCCN)CC(=O)N(CC(=O)N(CC(=O)N(CCCCN)CC(=O)N(CC(=O)N(CC(=O)N(CCCCN)CC(=O)N(CCCCN)CC(N)=O)[C@@H](C)c1ccccc1)[C@@H](C)c1ccccc1)[C@@H](C)c1ccccc1)[C@@H](C)c1ccccc1)C(=O)CN(C(=O)CN(CCCCN)C(=O)CNCCc1c[nH]c2ccccc12)[C@@H](C)c1ccccc1` [peptoid 57] (H-[Gly(N(CH2)2(3-indolyl))][Nlys][Nspe][Nspe][Nlys][Nspe][Nspe][Nlys][Nspe][Nspe][Nlys][Nlys]-NH2) was 49.1 % MeCN; that for `C[C@@H](c1ccccc1)N(CC(N)=O)C(=O)CN(CCCCN)C(=O)CN(C(=O)CN(CCCCN)C(=O)CN(CCCCN)C(=O)CN(C(=O)CN(C(=O)CN(CCCCN)C(=O)CN(C(=O)CN(C(=O)CN(CCCCN)C(=O)CNCCc1c[nH]c2ccccc12)[C@@H](C)c1ccccc1)[C@@H](C)c1ccccc1)[C@@H](C)c1ccccc1)[C@@H](C)c1ccccc1)[C@@H](C)c1ccccc1` [peptoid 58] was 48.7 % MeCN. Regarding `C[C@@H](c1ccccc1)N(CC(N)=O)C(=O)CN(CCCCN)C(=O)CN(C(=O)CN(C(=O)CN(CCCCN)C(=O)CN(C(=O)CN(CCCCN)C(=O)CN(CCCCN)C(=O)CN(C(=O)CN(C(=O)CN(CCCCN)C(=O)CNCCc1c[nH]c2ccccc12)[C@@H](C)c1ccccc1)[C@@H](C)c1ccccc1)[C@@H](C)c1ccccc1)[C@@H](C)c1ccccc1)[C@@H](C)c1ccccc1` [peptoid 59], the HPLC elution in series [1] amounted to 47.8 % MeCN. Same read-out and setting: as for `C[C@@H](c1ccccc1)N(CC(N)=O)C(=O)CN(CCCCN)C(=O)CN(C(=O)CN(C(=O)CN(CCCCN)C(=O)CN(C(=O)CN(C(=O)CN(CCCCN)C(=O)CN(C(=O)CN(CCCCN)C(=O)CN(CCCCN)C(=O)CNCCc1c[nH]c2ccccc12)[C@@H](C)c1ccccc1)[C@@H](C)c1ccccc1)[C@@H](C)c1ccccc1)[C@@H](C)c1ccccc1)[C@@H](C)c1ccccc1` [peptoid 60], the figure is 48.6 % MeCN. For the molecule `NC(=O)CN(CCc1c[nH]c2ccccc12)C(=O)CN(CCc1c[nH]c2ccccc12)C(=O)CN(CCCCO)C(=O)CN(CCc1c[nH]c2ccccc12)C(=O)CN(CCc1c[nH]c2ccccc12)C(=O)CN(CCCCO)C(=O)CN(CCc1c[nH]c2ccccc12)C(=O)CN(CCc1c[nH]c2ccccc12)C(=O)CN(CCCCO)C(=O)CN(CCc1c[nH]c2ccccc12)C(=O)CN(CCc1c[nH]c2ccccc12)C(=O)CNCCCCO` [peptoid 65] (H-[X1][Gly(N(CH2)2(3-indolyl))][Gly(N(CH2)2(3-indolyl))][X1][Gly(N(CH2)2(3-indolyl))][Gly(N(CH2)2(3-indolyl))][X1][Gly(N(CH2)2(3-indolyl))][Gly(N(CH2)2(3-indolyl))][X1][Gly(N(CH2)2(3-indolyl))][Gly(N(CH2)2(3-indolyl))]-NH2), the HPLC elution in series [1] is given as 66.7 % MeCN. On the same count and under the same terms, the value for `C[C@@H](c1ccccc1)N(CC(=O)N(CCCCO)CC(=O)N(CCc1c[nH]c2ccccc12)CC(=O)N(CCc1c[nH]c2ccccc12)CC(N)=O)C(=O)CN(CCCCO)C(=O)CN(CCCCO)C(=O)CN(C(=O)CN(C(=O)CN(CCCCO)C(=O)CN(C(=O)CN(C(=O)CNCCCCO)[C@@H](C)c1ccccc1)[C@@H](C)c1ccccc1)[C@@H](C)c1ccccc1)[C@@H](C)c1ccccc1` [peptoid 66] was 64.7 % MeCN.
